Reference: patent publication EP4786486A1, “PEPTIDES FOR TREATING CARDIAC DISEASES” (Universidad Complutense De Madrid, priority 2023, dated 2025)
Where a SMILES comes first, the peptide text is derived from it. The star is where a group is joined. FITC = O=C1OC2(c3ccc(O)cc3Oc3cc(O)ccc32)c2ccc(NC(=S)*)cc21; Palmitoyl = CCCCCCCCCCCCCCCC(=O)*

Tests used:
HEK293 cells = assay: Access to the cell interior of fluorescent peptides, fluorescence microscopy; type: cell-based; conditions: 24 hours, 10 µM, green fluorescent signal
[1] = Conformational study by circular dichroism (helicity); type: physicochemical; conditions: for Helicity in 60:40 H2O/TFE (%) / Helicity in H2O (%): circular dichroism, 10 µM, 5°C
Description: Circular dichroism spectra were recorded in aqueous solution and in a 60:40 H2O:trifluoroethanol (TFE) mixture. The concentration used was 10 µM and the temperature (T) was adjusted to 5°C. Measurements were made between 190 and 250 nm using a 0.1 cm optical pitch cell. The experiments were carried out at a scanning rate of 50 nm/min, a response time of 2 s and a bandwidth of 1 nm. The spectra obtained are the average of 4 sweeps to which the baseline was corrected.
To calculate helicity, the equation [θ]222/[θ]max. was used, where [θ]max = (-44000+250T) ([…]). As a finite length correction value (k), the value of k = 4 was taken, while n refers to the number of residues in the peptides. Table 6. Helicity observed by circular dichroism for the peptides studied.

[2] = Stability in human blood serum, UPLC-MS; type: in vitro ADME; conditions: 37°C
Description: A 1 mM dilution of the peptide in water was prepared and 0.5 ml was taken and mixed with 0.5 ml of human serum. The resulting solution was incubated for 72 hours at 37°C. After 24 hours and 72 hours, 120 µl aliquots were taken and treated with 20 µl trifluoroacetic acid to precipitate the proteins. After 30 minutes at 4°C, the mixture was centrifuged at 13000 g and 4°C. The supernatant, once filtered, was analysed by UPLC-MS using a C18 Bridge column (3.0 mm x 50 mm, 2.5 µm) and a gradient of 15 and 50% CH3CN (0.1% formic acid) in H2O (0.1% formic acid) over 5 minutes.

human Nav1.5 channels = molecular target: T1, human Nav1.5 channels (Homo sapiens, UniProt Q14524); assay: INa density, whole-cell patch-clamp in CHO cells co-transfected with Nav1.5 and the cDNA encoding the peptide; type: cell-based; conditions: vs. cells transfected only with Nav1.5 channels, various membrane potentials, P<0.05
T1 construct: expressed in transfected cells; host or cells: CHO (Chinese hamster ovary) cells
Description: (§1) To analyse the effect of the peptides designed in example 1 on INa and IK1, the cDNA that encodes SEQ ID NO: 3 or SEQ ID NO: 4, described in SEQ ID NO: 5 and 20, respectively, was cloned into a pcDNA3.1^(+)® vector (Invitrogen) for transfection of Chinese hamster ovary (CHO) cells that were in turn transfected with the cDNA that encodes the human Nav1.5 channels (SEQ ID NO: 21). The CHO cells were further co-transfected with the EBO-pcD leu 2 vector (0.5 µg), which encodes the expression of the CD8 surface antigen. The subsequent addition of anti-CD8 antibody, bonded to Dynabeads M450® microspheres, allowed the cells that had been transfected to be identified. […] The currents were recorded at 20-22°C using an Axopatch 200B amplifier, filtered at half the sampling frequency and stored in a computer for further analysis. […] The capacitive current artefacts generated after the application of pulses from 0 mV to +10 mV were recorded at 50 kHz (filtered at 10 kHz) to calculate the capacitance of the cell, the access resistance and the input impedance. […] INa was recorded by applying 50 ms pulses from a holding potential of -120 mV to potentials between -80 and +50 mV in 5 mV increments. […]

[3] = system: human cardiac Nav1.5 channels; assay: INa by whole-cell patch-clamp in CHO cells incubated with synthetic peptide; type: cell-based; conditions: CHO cells expressing Nav1.5, incubated 24 hours, 10 µM, vs untreated control cells
Description: as §1

T1 sequence (Q14524 1-2015 isoform Q14524-2): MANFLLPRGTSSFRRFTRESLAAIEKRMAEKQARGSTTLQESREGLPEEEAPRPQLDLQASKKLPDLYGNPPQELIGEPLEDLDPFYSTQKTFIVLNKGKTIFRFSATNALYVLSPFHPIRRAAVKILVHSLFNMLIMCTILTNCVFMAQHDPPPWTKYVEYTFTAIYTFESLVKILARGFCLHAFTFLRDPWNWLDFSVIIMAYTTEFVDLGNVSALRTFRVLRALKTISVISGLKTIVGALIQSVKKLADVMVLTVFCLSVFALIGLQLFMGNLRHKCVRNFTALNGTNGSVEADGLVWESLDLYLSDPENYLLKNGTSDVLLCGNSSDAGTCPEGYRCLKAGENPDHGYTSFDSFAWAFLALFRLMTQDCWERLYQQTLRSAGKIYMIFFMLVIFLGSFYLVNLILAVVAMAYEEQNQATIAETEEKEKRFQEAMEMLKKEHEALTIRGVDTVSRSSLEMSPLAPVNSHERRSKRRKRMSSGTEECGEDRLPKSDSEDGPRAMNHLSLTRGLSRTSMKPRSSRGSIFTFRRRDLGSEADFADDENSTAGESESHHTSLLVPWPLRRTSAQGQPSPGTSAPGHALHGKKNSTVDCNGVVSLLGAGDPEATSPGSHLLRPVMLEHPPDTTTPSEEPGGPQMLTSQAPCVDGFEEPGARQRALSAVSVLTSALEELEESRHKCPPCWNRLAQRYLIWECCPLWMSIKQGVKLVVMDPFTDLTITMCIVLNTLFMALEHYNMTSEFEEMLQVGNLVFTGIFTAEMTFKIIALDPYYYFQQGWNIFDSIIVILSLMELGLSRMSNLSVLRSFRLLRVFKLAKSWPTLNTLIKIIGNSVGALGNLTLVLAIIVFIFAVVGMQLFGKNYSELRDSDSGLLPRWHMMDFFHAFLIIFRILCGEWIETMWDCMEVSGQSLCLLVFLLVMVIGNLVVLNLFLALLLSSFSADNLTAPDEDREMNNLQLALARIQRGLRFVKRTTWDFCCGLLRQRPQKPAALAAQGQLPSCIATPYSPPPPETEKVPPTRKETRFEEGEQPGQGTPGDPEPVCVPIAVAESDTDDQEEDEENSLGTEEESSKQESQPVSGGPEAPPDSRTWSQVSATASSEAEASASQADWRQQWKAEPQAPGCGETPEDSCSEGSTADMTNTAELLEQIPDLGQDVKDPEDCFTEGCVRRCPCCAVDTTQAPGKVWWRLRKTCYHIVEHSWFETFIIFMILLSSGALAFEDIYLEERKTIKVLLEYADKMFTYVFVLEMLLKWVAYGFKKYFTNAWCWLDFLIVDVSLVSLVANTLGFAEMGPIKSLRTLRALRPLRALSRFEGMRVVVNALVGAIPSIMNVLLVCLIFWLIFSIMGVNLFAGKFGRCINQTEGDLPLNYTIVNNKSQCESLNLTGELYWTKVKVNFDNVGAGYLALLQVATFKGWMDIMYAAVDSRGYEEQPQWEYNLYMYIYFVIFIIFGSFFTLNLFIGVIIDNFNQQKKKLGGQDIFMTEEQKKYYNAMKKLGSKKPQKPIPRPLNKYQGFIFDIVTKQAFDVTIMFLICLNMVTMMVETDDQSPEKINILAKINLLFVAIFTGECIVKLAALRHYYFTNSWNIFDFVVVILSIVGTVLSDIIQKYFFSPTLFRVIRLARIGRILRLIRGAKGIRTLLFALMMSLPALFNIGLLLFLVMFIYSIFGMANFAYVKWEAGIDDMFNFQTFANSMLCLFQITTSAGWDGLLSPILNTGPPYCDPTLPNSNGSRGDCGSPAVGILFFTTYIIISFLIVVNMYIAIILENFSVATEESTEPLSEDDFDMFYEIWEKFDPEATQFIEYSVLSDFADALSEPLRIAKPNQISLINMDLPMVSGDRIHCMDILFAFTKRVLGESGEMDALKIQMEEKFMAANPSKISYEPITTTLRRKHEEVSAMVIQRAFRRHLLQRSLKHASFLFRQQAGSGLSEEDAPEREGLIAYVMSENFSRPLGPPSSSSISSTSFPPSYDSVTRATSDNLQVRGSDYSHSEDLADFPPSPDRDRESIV

## CC[C@H](C)[C@H](NC(=O)[C@H](C)NC(=O)[C@H](C)NC(=O)[C@H](CC(C)C)NC(=O)[C@H](CO)NC(=O)[C@H](CCC(=O)O)NC(=O)[C@H](CCCNC(=N)N)NC(=O)[C@@H](NC(=O)[C@H](Cc1ccccc1)NC(=O)[C@H](CCCNC(=N)N)NC(C)=O)[C@@H](C)O)C(=O)N[C@@H](CCC(=O)O)C(=O)N[C@@H](CCCCNC(=S)Nc1ccc2c(c1)C(=O)OC21c2ccc(O)cc2Oc2cc(O)ccc21)C(N)=O [Ac-SEQ ID NO: 23(SF)-NH2, Ac-RFTRESLAAlEK(SF)-NH2] (Ac-RFTRESLAAIEK(FITC)-NH2)
HEK293 cells
  ability to penetrate into the cell interior: not able to penetrate

## CCCCCCCCCCCCCCCC(=O)N[C@@H](CCCNC(=N)N)C(=O)N[C@@H](Cc1ccccc1)C(=O)N[C@H](C(=O)N[C@@H](CCCNC(=N)N)C(=O)N[C@@H](CCC(=O)O)C(=O)N[C@@H](CO)C(=O)N[C@@H](CC(C)C)C(=O)N[C@@H](C)C(=O)N[C@@H](C)C(=O)N[C@H](C(=O)N[C@@H](CCC(=O)O)C(=O)N[C@@H](CCCCNC(=S)Nc1ccc2c(c1)C(=O)OC21c2ccc(O)cc2Oc2cc(O)ccc21)C(N)=O)[C@@H](C)CC)[C@@H](C)O [Pal-SEQ ID NO: 23(SF)-NH2, Pal-RFTRESLAAIEK(SF)-NH2] (Palmitoyl-RFTRESLAAIEK(FITC)-NH2)
HEK293 cells
  ability to penetrate into the cell interior: good ability to penetrate

## Ac-FTRESLAAIEK-NH2 [Ac-SEQ ID NO: 25-NH2, Ac-FTRESLAAIEK-NH2]
[1]
  Helicity in 60:40 H2O/TFE (%): 46.2%
  Helicity in H2O (%): 10.7%
[1]; compared with Ac-SEQ ID NO: 3-NH2
  increase in helicity in H2O: 8%

## Ac-FTRESLAAIEKR-NH2 [Ac-SEQ ID NO: 26-NH2, Ac-FTRESLAAIEKR-NH2]
[1]
  Helicity in 60:40 H2O/TFE (%): 35.5%
  Helicity in H2O (%): 10.8%
[2]; human blood serum diluted 50:50 with water, human blood serum/H2O (50:50), after 24 hours of incubation, read-out: peptide remained unchanged
  remaining at 24 h, 0.5 mM: 82%
[2]; human blood serum, estimated taking into account serum concentration of 50%
  half-life: 27 h

## Ac-RFTRESLAAIE-NH2 [Ac-SEQ ID NO: 3-NH2, Ac-RFTRESLAAIE-NH2]
[1]
  Helicity in 60:40 H2O/TFE (%): 32.3%
  Helicity in H2O (%): 2.7%

## EKRMAEKQARGSTTL (listed as Homo sapiens) [SEQ ID NO: 4, 15-amino acid peptide, amino acids 25-39 of human Nav1.5]
Human Nav1.5 channels
  density of INa: did not

## Pal-FTRESLAAIEK-NH2 (Palmitoyl-FTRESLAAIEK-NH2; SMILES CCCCCCCCCCCCCCCC(=O)N[C@@H](Cc1ccccc1)C(=O)N[C@H](C(=O)N[C@@H](CCCNC(=N)N)C(=O)N[C@@H](CCC(=O)O)C(=O)N[C@@H](CO)C(=O)N[C@@H](CC(C)C)C(=O)N[C@@H](C)C(=O)N[C@@H](C)C(=O)N[C@H](C(=O)N[C@@H](CCC(=O)O)C(=O)N[C@@H](CCCCN)C(N)=O)[C@@H](C)CC)[C@@H](C)O) [Pal-SEQ ID NO: 25-NH2]
[3]
  INa: statistically significantly increase INa

## Pal-RFTRESLAAIEK-NH2 (Palmitoyl-RFTRESLAAIEK-NH2; SMILES CCCCCCCCCCCCCCCC(=O)N[C@@H](CCCNC(=N)N)C(=O)N[C@@H](Cc1ccccc1)C(=O)N[C@H](C(=O)N[C@@H](CCCNC(=N)N)C(=O)N[C@@H](CCC(=O)O)C(=O)N[C@@H](CO)C(=O)N[C@@H](CC(C)C)C(=O)N[C@@H](C)C(=O)N[C@@H](C)C(=O)N[C@H](C(=O)N[C@@H](CCC(=O)O)C(=O)N[C@@H](CCCCN)C(N)=O)[C@@H](C)CC)[C@@H](C)O) [Pal-SEQ ID NO: 23-NH2]
[3]
  INa: statistically significantly increase INa
